Measured values from US20230372301A1, “TREATMENTS WITH NIROGACESTAT” (SpringWorks Therapeutics, Inc., priority 2022, published 2023).
Where a name gives a salt, the structure may show the parent alone. Read-outs that look alike come from different tables or passages of the source.

Legend:
[1] = Pharmacokinetics of single oral doses of nirogacestat dihydrobromide; type: in vivo, human; settings: for AUC(0-inf) / AUC(0-t) / Cmax / half-life / Tmax / Vd/F: human, in vivo, po
[2] = Pharmacokinetics of 150 mg nirogacestat dihydrobromide twice daily at steady state exposure; type: in vivo, human; settings: 150 mg (free base equivalent dose) twice daily, oral
Experimental: The pharmacokinetic parameters for oral doses of 150 mg (free base equivalent dose) nirogacestat dihydrobromide twice daily at steady state exposure is provided in Table 2E below.

[3] = COHORT 1: 150 mg (1 × 150 mg), Period 2
[4] = COHORT 1: 150 mg (3 × 50 mg), Period 1
[5] = human, in vivo, steady state exposure

Which “CL/F, Geometric Mean” value [1, 3] does the source give for `CCC[C@H](N[C@H]1CCc2cc(F)cc(F)c2C1)C(=O)Nc1cn(C(C)(C)CNCC(C)(C)C)cn1` [nirogacestat dihydrobromide] here?
Its value is 49.7 L/h.

And the “CL/F, Median” value [1, 3]?
Its value is 48.4 L/h.

And the “CL/F, Geometric Mean” value [1, 4]?
Its value is 49.2 L/h.

What about the “CL/F, Median” value [1, 4] of the same compound?
Its value is 57.0 L/h.

What about the “CL/F, Geometric Mean” value ([1]; COHORT 2: 100 mg, Period 1) of the same compound?
The value was 56.1 L/h.

What about the “CL/F, Median” value ([1]; COHORT 2: 100 mg, Period 1) of the same compound?
The value was 58.4 L/h.

And the “CL/F, Geometric Mean” value ([1]; COHORT 3: 50 mg, Period 1)?
The value was 87.6 L/h.

And the “CL/F, Median” value ([1]; COHORT 3: 50 mg, Period 1)?
The value was 74.9 L/h.

What about the AUC(0-inf) ([1]; 50 mg, COHORT 3: 50 mg, Period 1, read-out: AUCinf, Geometric Mean) of the same compound?
The AUC(0-inf) was 571 ng·h/mL.

What about the AUC(0-inf) ([1]; 50 mg, COHORT 3: 50 mg, Period 1, read-out: AUCinf, Median) of the same compound?
The AUC(0-inf) was 674 ng·h/mL.

What about the AUC(0-t) ([1]; 50 mg, COHORT 3: 50 mg, Period 1, read-out: AUClast, Geometric Mean) of the same compound?
The AUC(0-t) was 545 ng·h/mL.

What about the AUC(0-t) ([1]; 50 mg, COHORT 3: 50 mg, Period 1, read-out: AUClast, Median) of the same compound?
The AUC(0-t) was 653 ng·h/mL.

What about the Cmax ([1]; 50 mg, COHORT 3: 50 mg, Period 1, read-out: Cmax, Geometric Mean) of the same compound?
The Cmax was 183 ng/mL.

What about the Cmax ([1]; 50 mg, COHORT 3: 50 mg, Period 1, read-out: Cmax, Median) of the same compound?
The Cmax was 209 ng/mL.

What about the half-life ([1]; 50 mg, COHORT 3: 50 mg, Period 1, read-out: Half-life, Geometric Mean (converted)) of the same compound?
The half-life was 19.3 h.

What about the half-life ([1]; 50 mg, COHORT 3: 50 mg, Period 1, read-out: Half-life, Median (converted)) of the same compound?
The half-life was 23.3 h.

And the Tmax ([1]; 50 mg, COHORT 3: 50 mg, Period 1, read-out: Tmax, Geometric Mean)?
The Tmax was 0.829 h.

What about the Tmax ([1]; 50 mg, COHORT 3: 50 mg, Period 1, read-out: Tmax, Median) of the same compound?
The Tmax was 1 h.

And the Vd/F ([1]; 50 mg, COHORT 3: 50 mg, Period 1, read-out: Vz/F, Geometric Mean)?
The Vd/F was 2440 L.

And the Vd/F ([1]; 50 mg, COHORT 3: 50 mg, Period 1, read-out: Vz/F, Median)?
Its Vd/F is 2730 L.

And the AUC(0-inf) ([1]; 100 mg, COHORT 2: 100 mg, Period 1, read-out: AUCinf, Geometric Mean)?
The AUC(0-inf) was 1780 ng·h/mL.

What about the AUC(0-inf) ([1]; 100 mg, COHORT 2: 100 mg, Period 1, read-out: AUCinf, Median) of the same compound?
The AUC(0-inf) was 1710 ng·h/mL.

What about the AUC(0-t) ([1]; 100 mg, COHORT 2: 100 mg, Period 1, read-out: AUClast, Geometric Mean) of the same compound?
The AUC(0-t) was 1720 ng·h/mL.

And the AUC(0-t) ([1]; 100 mg, COHORT 2: 100 mg, Period 1, read-out: AUClast, Median)?
The AUC(0-t) was 1660 ng·h/mL.

What about the Cmax ([1]; 100 mg, COHORT 2: 100 mg, Period 1, read-out: Cmax, Geometric Mean) of the same compound?
Its Cmax is 435 ng/mL.

And the Cmax ([1]; 100 mg, COHORT 2: 100 mg, Period 1, read-out: Cmax, Median)?
The Cmax was 433 ng/mL.

And the half-life ([1]; 100 mg, COHORT 2: 100 mg, Period 1, read-out: Half-life, Geometric Mean (converted))?
The half-life was 25.2 h.

What about the half-life ([1]; 100 mg, COHORT 2: 100 mg, Period 1, read-out: Half-life, Median (converted)) of the same compound?
The half-life was 24.4 h.

And the Tmax ([1]; 100 mg, COHORT 2: 100 mg, Period 1, read-out: Tmax, Geometric Mean)?
The Tmax was 1.19 h.

And the Tmax ([1]; 100 mg, COHORT 2: 100 mg, Period 1, read-out: Tmax, Median)?
Its Tmax is 1.28 h.

What about the Vd/F ([1]; 100 mg, COHORT 2: 100 mg, Period 1, read-out: Vz/F, Geometric Mean) of the same compound?
Its Vd/F is 2040 L.

And the Vd/F ([1]; 100 mg, COHORT 2: 100 mg, Period 1, read-out: Vz/F, Median)?
Its Vd/F is 2040 L.

What about the AUC(0-inf) ([1]; 150 mg, COHORT 1: 150 mg (1 × 150 mg), Period 2, read-out: AUCinf, Geometric Mean) of the same compound?
The AUC(0-inf) was 3020 ng·h/mL.

What about the AUC(0-inf) ([1]; 150 mg, COHORT 1: 150 mg (1 × 150 mg), Period 2, read-out: AUCinf, Median) of the same compound?
The AUC(0-inf) was 3100 ng·h/mL.

And the AUC(0-t) ([1]; 150 mg, COHORT 1: 150 mg (1 × 150 mg), Period 2, read-out: AUClast, Geometric Mean)?
The AUC(0-t) was 2930 ng·h/mL.

What about the AUC(0-t) ([1]; 150 mg, COHORT 1: 150 mg (1 × 150 mg), Period 2, read-out: AUClast, Median) of the same compound?
Its AUC(0-t) is 3040 ng·h/mL.

And the Cmax ([1]; 150 mg, COHORT 1: 150 mg (1 × 150 mg), Period 2, read-out: Cmax, Geometric Mean)?
The Cmax was 686 ng/mL.

What about the Cmax ([1]; 150 mg, COHORT 1: 150 mg (1 × 150 mg), Period 2, read-out: Cmax, Median) of the same compound?
The Cmax was 662 ng/mL.

And the half-life ([1]; 150 mg, COHORT 1: 150 mg (1 × 150 mg), Period 2, read-out: Half-life, Geometric Mean (converted))?
The half-life was 24.7 h.

And the half-life ([1]; 150 mg, COHORT 1: 150 mg (1 × 150 mg), Period 2, read-out: Half-life, Median (converted))?
The half-life was 26.3 h.

What about the Tmax ([1]; 150 mg, COHORT 1: 150 mg (1 × 150 mg), Period 2, read-out: Tmax, Geometric Mean) of the same compound?
Its Tmax is 1.2 h.

What about the Tmax ([1]; 150 mg, COHORT 1: 150 mg (1 × 150 mg), Period 2, read-out: Tmax, Median) of the same compound?
Its Tmax is 1.5 h.

And the Vd/F ([1]; 150 mg, COHORT 1: 150 mg (1 × 150 mg), Period 2, read-out: Vz/F, Geometric Mean)?
Its Vd/F is 1770 L.

What about the Vd/F ([1]; 150 mg, COHORT 1: 150 mg (1 × 150 mg), Period 2, read-out: Vz/F, Median) of the same compound?
The Vd/F was 1720 L.

And the AUC(0-inf) ([1]; 150 mg, COHORT 1: 150 mg (3 × 50 mg), Period 1, read-out: AUCinf, Geometric Mean)?
Its AUC(0-inf) is 3050 ng·h/mL.

What about the AUC(0-inf) ([1]; 150 mg, COHORT 1: 150 mg (3 × 50 mg), Period 1, read-out: AUCinf, Median) of the same compound?
The AUC(0-inf) was 2640 ng·h/mL.

And the AUC(0-t) ([1]; 150 mg, COHORT 1: 150 mg (3 × 50 mg), Period 1, read-out: AUClast, Geometric Mean)?
Its AUC(0-t) is 2960 ng·h/mL.

And the AUC(0-t) ([1]; 150 mg, COHORT 1: 150 mg (3 × 50 mg), Period 1, read-out: AUClast, Median)?
Its AUC(0-t) is 2580 ng·h/mL.

And the Cmax ([1]; 150 mg, COHORT 1: 150 mg (3 × 50 mg), Period 1, read-out: Cmax, Geometric Mean)?
The Cmax was 733 ng/mL.

And the Cmax ([1]; 150 mg, COHORT 1: 150 mg (3 × 50 mg), Period 1, read-out: Cmax, Median)?
The Cmax was 697 ng/mL.

What about the half-life ([1]; 150 mg, COHORT 1: 150 mg (3 × 50 mg), Period 1, read-out: Half-life, Geometric Mean (converted)) of the same compound?
Its half-life is 25 h.

And the half-life ([1]; 150 mg, COHORT 1: 150 mg (3 × 50 mg), Period 1, read-out: Half-life, Median (converted))?
Its half-life is 26.3 h.

What about the Tmax ([1]; 150 mg, COHORT 1: 150 mg (3 × 50 mg), Period 1, read-out: Tmax, Geometric Mean) of the same compound?
Its Tmax is 1.34 h.

What about the Tmax ([1]; 150 mg, COHORT 1: 150 mg (3 × 50 mg), Period 1, read-out: Tmax, Median) of the same compound?
The Tmax was 1.49 h.

And the Vd/F ([1]; 150 mg, COHORT 1: 150 mg (3 × 50 mg), Period 1, read-out: Vz/F, Geometric Mean)?
The Vd/F was 1770 L.

What about the Vd/F ([1]; 150 mg, COHORT 1: 150 mg (3 × 50 mg), Period 1, read-out: Vz/F, Median) of the same compound?
Its Vd/F is 1830 L.

What about the Time to steady-state [2] of the same compound?
The Time to steady-state was “Approximately 8 days”.

And the AUC [2, 5]?
Its AUC is 6430 ng·h/mL.

What about the Cmax [2, 5] of the same compound?
Its Cmax is 1250 ng/mL.
